Measured values from US12054721B2, “Compositions and methods for 3-hydroxypropionic acid production” (CARGILL, INCORPORATED, priority 2010, dated 2024).

Tested on: yeast cells
Assay: EMS mutagenesis of yeast cells (kill rate)
Assay type: cell-based
Settings: 3 μL EMS in 200 μL cell suspension (OD600 around 10), approximately one hour
Protocol: For example, yeast cells from a fresh YP (yeast extract/peptone)+20 g/L glucose plate or liquid culture (OD600 1-4) are resuspended in sterile water to an OD600 of around 10. 200 μL aliquots of this cell suspension are pipetted into individual tubes and exposed to 3 μL […] (EMS) for approximately one hour, which kills around 65% of the cells. Higher EMS concentrations can also be used to increase the kill rate. After exposure, cells are neutralized with 5% sodium thiosulfate, washed in PBS buffer, recovered in rich media for approximately four hours, and cultured on selective media. Mock samples (no EMS) are also run to ensure that the conditions are selective. Alternatively, cells can be mutagenized using UV irradiation.

CCOS(C)(=O)=O [ethane methyl sulfonate (EMS), ethane methyl sulfonate]
cells killed: around 65%
